Assay results published in US8415336B2, “Cyclic (aza)indolizinecarboxamides, their preparation and their use as pharmaceuticals” (Sanofi, priority 2009, dated 2013).
Counter-ions that a name gives are not always drawn.

Compound | melting point [°C]
Cc1c(F)cccc1Cc1c(C2CCCCC2)c2ccccn2c1C(=O)N1CCNCC1 (as salt: hydrochloride) [Example 2, [1-Cyclohexyl-2-(3-fluoro-2-methyl-benzyl)-indolizin-3-yl]-piperazin-1-yl-methanone] | 317 to 318
O=C(c1c(Cc2c(F)cccc2Cl)c(-c2ccccc2)c2ccccn12)N1CCNCC1 (as salt: hydrochloride) [Example 3, [2-(2-Chloro-6-fluoro-benzyl)-1-phenyl-indolizin-3-yl]-piperazin-1-yl-methanone] | 304
Cc1c(F)cccc1Cc1c(-c2ccccc2)c2ccccn2c1C(=O)N1CCN[C@@H](CCO)C1 (as salt: hydrochloride) [Example 5, [2-(3-Fluoro-2-methyl-benzyl)-1-phenyl-indolizin-3-yl]-[(S)-3-(2-hydroxy-ethyl)-piperazin-1]-yl-methanone] | 202
Cc1c(F)cccc1Cc1c(-c2ccccc2)c2ccccn2c1C(=O)N1CCN[C@@H](CC(=O)NCC2CCOCC2)C1 (as salt: hydrochloride) [Example 6, 2-{(S)-4-[2-(3-Fluoro-2-methyl-benzyl)-1-phenyl-indolizine-3-carbonyl]-piperazin-2-yl}-N-(tetrahydropyran-4-ylmethyl)-acetamide] | 147
Cc1c(F)cccc1Cc1c(-c2ccccc2)c2ccccn2c1C(=O)N1CCN[C@@H](CC(=O)NCC(C)(C)C(N)=O)C1 (as salt: hydrochloride) [Example 7, 3-(2-{(S)-4-[2-(3-Fluoro-2-methyl-benzyl)-1-phenyl-indolizine-3-carbonyl]-piperazin-2-yl}-acetylamino)-2,2-dimethyl-propionamide] | 174 to 176
Cc1cccc(C)c1Cc1c(-c2ccccc2)c2ccccn2c1C(=O)N1CCN[C@H](C)C1 (as salt: hydrochloride) [Example 17, [2-(2,6-Dimethyl-benzyl)-1-phenyl-indolizin-3-yl)-((R)-3-methyl-piperazin-1-yl)-methanone] | 302

Further lines, results first:

melting point [°C] | Compound
263 | Cc1c(F)cccc1Cc1c(-c2ccccc2)c2ccccn2c1C(=O)N1CCNCC1 (as salt: hydrochloride) [Example 1, [2-(3-Fluoro-2-methyl-benzyl)-1-phenyl-indolizin-3-yl]-piperazin-1-yl-methanone]
205 | CNC(=O)c1ccn2c(C(=O)N3CCNCC3)c(Cc3cccc(F)c3C)c(-c3ccccc3)c2c1 (as salt: hydrochloride) [Example 4, 2-(3-Fluoro-2-methyl-benzyl)-1-phenyl-3-(piperazine-1-carbonyl)-indolizine-7-carboxylic acid methylamide]
208 to 210 | CNC(=O)c1cnn2c(C(=O)N3CCNCC3)c(Cc3cccc(F)c3C)c(-c3ccccc3)c2c1 (as salt: hydrochloride) [Example 8, 6-(3-Fluoro-2-methyl-benzyl)-5-phenyl-7-(piperazine-1-carbonyl)-pyrrolo[1,2-b]pyridazin-3-carboxylic acid methylamide]
140 to 142 | Cc1c(F)cccc1Cc1c(-c2ccccc2)c2cccnn2c1C(=O)N1CCNCC1 (as salt: hydrochloride) [Example 9, [6-(3-Fluoro-2-methyl-benzyl)-5-phenyl-pyrrolo[1,2-b]pyridazin-7-yl]-piperazin-1-yl-methanone]
206 to 208 | Cc1c(F)cccc1Cc1c(-c2ccccc2)c2cc(O)cnn2c1C(=O)N1CCNCC1 (as salt: hydrochloride) [Example 10, [6-(3-Fluoro-2-methyl-benzyl)-3-hydroxy-5-phenyl-pyrrolo[1,2-b]pyridazin-7-yl]-piperazin-1-yl-methanone]
273 | CNC(=O)c1ccc2c(-c3ccccc3)c(Cc3cccc(F)c3C)c(C(=O)N3CCNCC3)n2c1 (as salt: hydrochloride) [Example 13, 2-(3-Fluoro-2-methyl-benzyl)-1-phenyl-3-(piperazine-1-carbonyl)-indolizine-6-carboxylic acid methylamide]
